Assays:
SK-BR-3 tumor cells = experiment: In vitro activity test (MTS, 5 days), growth inhibition of SK-BR-3 cells; type: cell-based; details: Homo sapiens, 120 h
Protocol: • Cells: derived from the Cell Bank of the Chinese Academy of Sciences; • Tumor cell culture medium: Gibco™; • Fetal Bovine Serum (FBS): BIOWEST™;
• Growth medium (with 10% FBS, Penicillin/streptomycin (100 U/mL); • Assay medium (with 1% FBS, Penicillin/streptomycin (100 U/mL);
The biosafety cabinet was turned on for UV light irradiation 30 min in advance, and subsequently ventilated for 3 minutes. The growth medium, assay medium, D-PBS and trypsin were preheated in a 37°C thermostatic water bath, after which the surface was sterilized with alcohol and placed in the biosafety cabinet. Cells with a confluence of ~80% (logarithmic growth phase) were selected and placed in a biosafety cabinet, old medium was aspirated off, rinsed with D-PBS, aspirated and discarded, digested with trypsin for 2-3 minutes, after which growth medium was added to terminate the trypsin, and centrifuged at 500 × g for 5 minutes. The centrifugation supernatant was aspirated off, and the cells were mixed with 4 mL of assay medium, and 100 uL of the cells were taken for counting (of which 50 uL of cytosol was taken out, and 50 uL of 0.4% cell solution was added to 50 µL of 0.4% Trypan Blue Stain and mix, count after mixing). Spread the plate according to the previously set cell number, 80 uL/well in 96-well plate, wells E11, F11, G11 only received 80 uL of detection medium, the wells on the edge received 200 uL of DPBS to seal the edge. After the cells are completely attached to the wall (usually at least 4 hours), the test samples were configured and diluted: 1.0 mL of 2.5 µM (5 ×Top Dose) test samples were configured with the assay medium and dispensed into the first column of the V-type 96-well plate, with 200 µL in each well; 180 µL of assay medium was added to the second through eighth columns, and 30 µL was added to the second column from the first column, and mixed up and down with a row gun for […]. The test medium was mixed up and down 10 times with a row gun, discard the gun tip, and the remaining test concentration points were operated sequentially to perform 7-fold gradient concentration dilution. […]
The MTS reagent was removed from the test samples after 5 days of action, thawed at room temperature and protected from light, vortexed and mixed thoroughly, and then 20 µL of Cell Titer One Solution Reagen MTS reagent was added along the side wall of the wells for every 100 µL of cell culture volume in a biosafety cabinet. […] After the end of the reaction, took out the 96-well plate, placed in the enzyme labeling instrument to detect the OD490 nm absorbance value, and performed the data recording, organization and storage.

N87 tumor cells = experiment: In vitro activity test (MTS, 5 days), growth inhibition of N87 cells; type: cell-based; details: 120 h
Protocol: The biosafety cabinet was turned on for UV light irradiation 30 min in advance, and subsequently ventilated for 3 minutes. The growth medium, assay medium, D-PBS and trypsin were preheated in a 37°C thermostatic water bath, after which the surface was sterilized with alcohol and placed in the biosafety cabinet. Cells with a confluence of ~80% (logarithmic growth phase) were selected and placed in a biosafety cabinet, old medium was aspirated off, rinsed with D-PBS, aspirated and discarded, digested with trypsin for 2-3 minutes, after which growth medium was added to terminate the trypsin, and centrifuged at 500 × g for 5 minutes. The centrifugation supernatant was aspirated off, and the cells were mixed with 4 mL of assay medium, and 100 uL of the cells were taken for counting (of which 50 uL of cytosol was taken out, and 50 uL of 0.4% cell solution was added to 50 µL of 0.4% Trypan Blue Stain and mix, count after mixing). Spread the plate according to the previously set cell number, 80 uL/well in 96-well plate, wells E11, F11, G11 only received 80 uL of detection medium, the wells on the edge received 200 uL of DPBS to seal the edge. […]

COc1cc2c(cc1OCCCCC(=O)N1C[C@@H](CCl)c3c1cc(O)c1cccc(C)c31)N=C[C@@H]1CC(c3ccc(NC(=O)CO)cc3)=CN1C2=O [Compound C1]
IC50 (SK-BR-3 tumor cells): 8.67 nM | IC50 (N87 tumor cells): 9.68 nM

COc1ccc(C2=CN3C(=O)c4cc(OC)c(OCC56CC(C(=O)N7C[C@@H](CCl)c8c7cc(O)c7cccc(C)c87)(C5)C6)cc4N=C[C@@H]3C2)cc1 [Compound A]
IC50 (SK-BR-3 tumor cells): 0.52 nM

COc1cc2c(cc1OCCCCC(=O)N1C[C@@H](CCl)c3c1cc(O)c1cccc(C)c31)N=C[C@@H]1Cc3ccc(NC(=O)CO)cc3N1C2=O [Compound D1]
IC50 (SK-BR-3 tumor cells): 10.3 nM | IC50 (N87 tumor cells): 12.3 nM

COc1cc2c(cc1OCC13CC(C(=O)N4C[C@@H](CCl)c5c4cc(O)c4cccc(C)c54)(C1)C3)N=C[C@@H]1CC(c3ccc(NC(=O)CO)cc3)=CN1C2=O [Compound B1]
IC50 (SK-BR-3 tumor cells): 4.23 nM | IC50 (N87 tumor cells): 5.03 nM
